Results from US20250388571A1, “AMP-ACTIVATED PROTEIN KINASE MODULATOR COMPOUNDS AND USES THEREOF” (Biolexis Therapeutics, Inc., priority 2024, published 2025).

What was measured:
AMPK (A2/B1/G3) = AMPK (A2/B1/G3) (Homo sapiens, UniProt P54646+Q9UGI9+Q9Y478); assay: AMPK kinase binding activity in activation mode (AC50); format: biochemical
AMPK (A2/B1/G2) = AMPK (A2/B1/G2) (Homo sapiens, UniProt P54646+Q9UGJ0+Q9Y478); assay: as above; format: biochemical
From the text: (§1) In Vitro AMPK Kinase Inhibition Experiments

AMPK (A2/B1/G1) = AMPK (A2/B1/G1) (Homo sapiens, UniProt P54619+P54646+Q9Y478); assay: as above; format: biochemical
AMPK (A2/B1/G1), sequence (P54646 whole entry): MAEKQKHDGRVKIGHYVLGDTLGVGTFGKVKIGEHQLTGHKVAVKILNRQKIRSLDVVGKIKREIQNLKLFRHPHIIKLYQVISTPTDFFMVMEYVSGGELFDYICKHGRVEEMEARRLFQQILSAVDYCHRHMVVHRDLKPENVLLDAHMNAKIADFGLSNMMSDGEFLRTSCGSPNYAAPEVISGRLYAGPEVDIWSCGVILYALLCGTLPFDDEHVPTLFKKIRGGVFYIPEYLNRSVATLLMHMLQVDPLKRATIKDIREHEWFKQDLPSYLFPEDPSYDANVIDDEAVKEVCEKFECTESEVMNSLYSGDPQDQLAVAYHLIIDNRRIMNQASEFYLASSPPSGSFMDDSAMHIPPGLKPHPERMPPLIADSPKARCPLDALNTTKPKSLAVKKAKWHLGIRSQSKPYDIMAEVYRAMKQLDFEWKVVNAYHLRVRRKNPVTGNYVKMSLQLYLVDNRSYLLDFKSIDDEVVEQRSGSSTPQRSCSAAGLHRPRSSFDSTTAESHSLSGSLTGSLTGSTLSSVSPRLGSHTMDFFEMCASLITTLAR
AMPK (A2/B1/G1), sequence (Q9Y478 whole entry): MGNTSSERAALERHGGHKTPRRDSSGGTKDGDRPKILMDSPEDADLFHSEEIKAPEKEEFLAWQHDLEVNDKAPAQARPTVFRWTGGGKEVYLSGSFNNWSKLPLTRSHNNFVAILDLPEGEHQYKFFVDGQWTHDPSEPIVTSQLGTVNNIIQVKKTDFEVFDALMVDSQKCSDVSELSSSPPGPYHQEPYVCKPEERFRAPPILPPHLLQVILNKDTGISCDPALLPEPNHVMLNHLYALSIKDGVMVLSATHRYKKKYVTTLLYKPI
AMPK (A2/B1/G1), sequence (P54619 whole entry): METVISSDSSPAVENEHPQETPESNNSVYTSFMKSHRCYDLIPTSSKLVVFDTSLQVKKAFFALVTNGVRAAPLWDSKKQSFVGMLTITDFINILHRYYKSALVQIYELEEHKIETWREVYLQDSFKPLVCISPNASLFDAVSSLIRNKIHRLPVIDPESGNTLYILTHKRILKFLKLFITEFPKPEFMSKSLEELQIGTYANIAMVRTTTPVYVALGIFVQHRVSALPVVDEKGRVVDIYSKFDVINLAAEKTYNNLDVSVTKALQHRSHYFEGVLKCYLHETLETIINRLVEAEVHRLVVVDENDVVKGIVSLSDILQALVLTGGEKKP

[1] = tested on: human skeletal muscle cells (HSKM cells); assay: Glucose uptake assay, human skeletal muscle cells; format: cell-based
Experimental: FIGS. 1-4 show results for cells treated with differing doses of representative compounds of Structure (I) (i.e., compound I-11 in FIG. 1 and compound I-7 in FIG. 2) as well reference compounds (i.e., PF-06409577 in FIG. 3 and MK-8722 in FIG. 4). […] Cells were starved for 3 hours in high glucose DMEM without FBS, then treated with indicated compounds in DMEM without FBS/glucose for 1 hour, and glucose uptake was detected using an uptake glucose kit (Promega). The bars show (from left to right) concentrations of 100 μM, 33 μM, 11 μM, 3.7 μM, 1.23 μM, 0.41 μM, 0.14 μM, 0.045 μM, 0.015 μM, 0.005 μM, 0 μM, and insulin.
(§2) Human skeletal myoblasts were obtained (Thermofisher; BYU) and cultured in DMEM/F12 medium with 10% FBS. For differentiation, 2% horse serum low glucose DMEM medium was employed for 72 hours. Human cardiomyocytes cells (HCM cells; Promocell) were cultured in myocyte growth medium (Promocell). Human preadipocyte HWP-c cells (Promocell) were obtained from upper arm of diabetic II donor. Human preadipocyte HWP-c cells (Promocell) were obtained from abdomen of diabetic II donor. For differentiating human preadipocytes, cells were cultured in preadipocyte growth medium to total confluency stage. The growth medium was replaced with preadipocyte differentiation medium for 72 hours, then changed to PromoCell adipocyte nutrition medium to complete the differentiation process. THLE-2 cells were cultured in BEGM from Lonza/Clonetics Corporation, Walkersville, MD 21793 (BEGM Bullet Kit; CC3170). HepG2, L6 and C2Cl2 cells were cultured in EMEM medium.
(§3) After differentiation myoblasts, preadipocyte cells were starved by removing the medium and adding 100 μL DMEM without serum. The medium was then replaced with 100 μL DMEM±1 μM insulin at indicated concentration of representative compounds without serum or glucose. The cells were then incubated for 1 hour at 37° C. in 5% CO2. The cells were then removed from the medium and 50 μL of 0.1 mM 2DG in PBS was added. Cells were incubated for 30 minutes at 25° C. 25 μL of Stop Buffer was added and samples were mixed. 25 μL of Neutralization Buffer was then added and mixed. 100 μL of 2DG6P Detection Reagent was then added and mixed. Samples were then incubated for 1 hour at 25° C. Luminescence was then recorded with 0.3-1 second integration on a luminometer.

AMPK (A2/B2/G3) = AMPK (A2/B2/G3) (Homo sapiens, UniProt O43741+P54646+Q9UGI9); assay: AMPK kinase binding activity in activation mode (AC50); format: biochemical
AMPK (A2/B2/G3), sequence (P54646 whole entry): as the sequence (P54646 whole entry) above
AMPK (A2/B2/G3), sequence (O43741 whole entry): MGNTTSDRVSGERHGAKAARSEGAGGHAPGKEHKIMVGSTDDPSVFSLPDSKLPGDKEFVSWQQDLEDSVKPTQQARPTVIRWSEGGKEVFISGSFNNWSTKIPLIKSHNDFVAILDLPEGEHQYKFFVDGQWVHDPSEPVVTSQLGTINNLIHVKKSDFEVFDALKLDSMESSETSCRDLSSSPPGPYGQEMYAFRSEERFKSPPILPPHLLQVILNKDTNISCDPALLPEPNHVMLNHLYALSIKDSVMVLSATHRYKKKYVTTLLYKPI
AMPK (A2/B2/G3), sequence (Q9UGI9 whole entry): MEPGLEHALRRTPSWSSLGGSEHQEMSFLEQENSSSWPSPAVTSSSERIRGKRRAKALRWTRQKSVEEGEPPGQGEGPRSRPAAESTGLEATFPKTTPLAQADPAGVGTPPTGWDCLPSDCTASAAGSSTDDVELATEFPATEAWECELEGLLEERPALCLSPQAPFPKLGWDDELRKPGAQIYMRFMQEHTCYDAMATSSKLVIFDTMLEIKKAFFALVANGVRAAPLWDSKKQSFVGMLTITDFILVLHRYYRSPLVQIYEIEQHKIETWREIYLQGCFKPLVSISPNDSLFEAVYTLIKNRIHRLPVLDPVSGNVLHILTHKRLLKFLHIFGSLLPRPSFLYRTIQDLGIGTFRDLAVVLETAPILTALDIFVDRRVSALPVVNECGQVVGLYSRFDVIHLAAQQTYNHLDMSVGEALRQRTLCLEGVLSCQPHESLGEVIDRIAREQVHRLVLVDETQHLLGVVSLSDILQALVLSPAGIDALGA
From the text: as §1

[2] = tested on: human cardiomyocyte cells (HCM); assay: Glucose uptake assay, human cardiomyocyte cells; format: cell-based; conditions: for AMPK activation activity (glucose uptake assay): 10 doses 100 μM to 0.005 μM
Experimental: FIGS. 17-19 show results for glucose update assays in human cardiomyocyte cells (“HCM”-healthy donor) (Promocell, cat. no. C-12810) when treated with compound I-11 (FIG. 17), compound I-7 (FIG. 18), and PF-06409577 (FIG. 19). After recovered HCM cells for 4 days, cells were starved for 3 hours in high glucose DMEM without FBS, treated with the components noted above in DMEM without FBS/glucose for 1 hour, and glucose uptake was detected using a glucose uptake kit (Promega). […] The bars show (from left to right) concentrations of 100 μM, 33 μM, 11 μM, 3.7 μM, 1.23 μM, 0.41 μM, 0.14 μM, 0.045 μM, 0.015 μM, 0.005 μM, 0 μM, and insulin.
FIGS. 20-22 show results for glucose update assays in human cardiomyocyte cells (“HCM”-diabetic donor) (Promocell, cat. no. C-12810) when treated with compound I-11 (FIG. 20), compound I-7 (FIG. 21), and PF-06409577 (FIG. 22). After recovered HCM cells for 4 days, cells were starved for 3 hours in high glucose DMEM without FBS, treated with the components noted above in DMEM without FBS/glucose for 1 hour, and glucose uptake was detected using a glucose uptake kit (Promega). […] The bars show (from left to right) concentrations of 100 μM, 33 μM, 11 μM, 3.7 μM, 1.23 μM, 0.41 μM, 0.14 μM, 0.045 μM, 0.015 μM, 0.005 μM, 0 μM, and insulin.
as §2, §3

AMPK (A2/B1/G2), sequence (P54646 whole entry): as the sequence (P54646 whole entry) above
AMPK (A2/B1/G2), sequence (Q9Y478 whole entry): as the sequence (Q9Y478 whole entry) above
AMPK (A2/B1/G2), sequence (Q9UGJ0 whole entry): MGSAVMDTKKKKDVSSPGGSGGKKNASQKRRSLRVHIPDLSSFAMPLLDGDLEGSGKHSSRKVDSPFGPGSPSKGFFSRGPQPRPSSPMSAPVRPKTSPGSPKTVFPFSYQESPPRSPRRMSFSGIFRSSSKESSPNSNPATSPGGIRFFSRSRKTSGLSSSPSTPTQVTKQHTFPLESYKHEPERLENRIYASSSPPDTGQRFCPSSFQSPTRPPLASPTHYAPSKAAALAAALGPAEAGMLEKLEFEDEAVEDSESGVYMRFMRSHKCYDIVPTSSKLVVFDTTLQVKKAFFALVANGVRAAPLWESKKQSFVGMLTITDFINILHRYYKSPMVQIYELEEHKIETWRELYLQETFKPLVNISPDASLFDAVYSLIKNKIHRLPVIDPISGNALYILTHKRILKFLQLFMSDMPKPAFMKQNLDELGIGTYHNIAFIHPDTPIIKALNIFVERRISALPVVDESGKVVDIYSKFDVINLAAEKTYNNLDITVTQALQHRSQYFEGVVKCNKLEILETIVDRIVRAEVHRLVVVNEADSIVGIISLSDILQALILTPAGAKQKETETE
AMPK (A2/B1/G3), sequence (P54646 whole entry): as the sequence (P54646 whole entry) above
AMPK (A2/B1/G3), sequence (Q9Y478 whole entry): as the sequence (Q9Y478 whole entry) above
AMPK (A2/B1/G3), sequence (Q9UGI9 whole entry): as the sequence (Q9UGI9 whole entry) above

O=c1[nH]c(-c2c[nH]c3cc(F)c(-c4ccc(C5(O)COC5)cc4)cc23)no1 [Compound I-12, 3-(6-fluoro-5-(4-(3-hydroxyoxetan-3-yl)phenyl)-1H-indol-3-yl)-1,2,4-oxadiazol-5(4H)-one]
AC50 (AMPK (A2/B1/G3)): 10 to 500 nM | AC50 (AMPK (A2/B1/G2)): 10 to 500 nM

O=c1[nH]c(-c2c[nH]c3cc(F)c(-c4ccc(C5(O)COC5)cc4)c(F)c23)no1 [Compound I-13, 3-(4,6-difluoro-5-(4-(3-hydroxyoxetan-3-yl)phenyl)-1H-indol-3-yl)-1,2,4-oxadiazol-5(4H)-one]
AC50 (AMPK (A2/B1/G3)): ≤ 10 nM | AC50 (AMPK (A2/B1/G2)): ≤ 10 nM | AC50 (AMPK (A2/B1/G1)): 10 to 500 nM | glucose uptake ([1]; starved, treated 1 hour): increased glucose uptake

COc1ccc(-c2cc3c(-c4noc(=O)[nH]4)c[nH]c3cc2F)c(OC)n1 [Compound I-14, 3-(5-(2,6-dimethoxypyridin-3-yl)-6-fluoro-1H-indol-3-yl)-1,2,4-oxadiazol-5(4H)-one]
AC50 (AMPK (A2/B1/G3)): 10 to 500 nM | AC50 (AMPK (A2/B1/G1)): 10 to 500 nM

COc1ncccc1-c1cc2c(-c3noc(=O)[nH]3)c[nH]c2cc1F [Compound I-15, 3-(6-fluoro-5-(2-methoxypyridin-3-yl)-1H-indol-3-yl)-1,2,4-oxadiazol-5(4H)-one]
AC50 (AMPK (A2/B1/G3)): 10 to 500 nM | AC50 (AMPK (A2/B1/G2)): ≤ 10 nM | AC50 (AMPK (A2/B1/G1)): 10 to 500 nM

COc1ccc(-c2cc3c(-c4noc(=O)[nH]4)c[nH]c3cc2F)cn1 [Compound I-16, 3-(6-fluoro-5-(6-methoxypyridin-3-yl)-1H-indol-3-yl)-1,2,4-oxadiazol-5(4H)-one]
AC50 (AMPK (A2/B1/G3)): 500 to 5000 nM | AC50 (AMPK (A2/B1/G2)): 500 to 5000 nM | AC50 (AMPK (A2/B1/G1)): 5000 to 7500 nM

COc1ccc(-c2c(F)cc3[nH]cc(-c4noc(=O)[nH]4)c3c2F)c(OC)n1 [Compound I-17, 3-(5-(2,6-dimethoxypyridin-3-yl)-4,6-difluoro-1H-indol-3-yl)-1,2,4-oxadiazol-5(4H)-one]
AC50 (AMPK (A2/B1/G3)): 500 to 5000 nM | AC50 (AMPK (A2/B1/G2)): 500 to 5000 nM | AC50 (AMPK (A2/B1/G1)): 500 to 5000 nM

O=c1[nH]c(-c2c[nH]c3cc(F)c(-c4ccc(C5(O)COC5)nc4)cc23)no1 [Compound I-18, 3-(6-fluoro-5-(6-(3-hydroxyoxetan-3-yl)pyridin-3-yl)-1H-indol-3-yl)-1,2,4-oxadiazol-5(4H)-one]
AC50 (AMPK (A2/B1/G1)): 7500 to 20000 nM

O=c1[nH]c(-c2c[nH]c3ccc(N4CC[C@H](O)C4)cc23)no1 [Compound I-20, (S)-3-(5-(3-hydroxypyrrolidin-1-yl)-1H-indol-3-yl)-1,2,4-oxadiazol-5(4H)-one]
AC50 (AMPK (A2/B1/G3)): 500 to 5000 nM | AC50 (AMPK (A2/B1/G1)): 5000 to 7500 nM

O=C1CN(c2c[nH]c3cc(Cl)c(-c4ccc(C5(O)CCC5)cc4)cc23)S(=O)(=O)N1 [Compound I-76, 5-(6-chloro-5-(4-(1-hydroxycyclobutyl)phenyl)-1H-indol-3-yl)-1,2,5-thiadiazolidin-3-one 1,1-dioxide]
AC50 (AMPK (A2/B1/G3)): ≤ 10 nM | AC50 (AMPK (A2/B2/G3)): 500 to 5000 nM

Cc1ccc(N2CC(=O)NS2(=O)=O)cc1Oc1nc2nc(-c3ccc(C4(O)CCC4)cc3)c(Cl)cc2[nH]1 [II-21, 5-(3-((6-chloro-5-(4-(1-hydroxycyclobutyl)phenyl)-1H-imidazo[4,5-b]pyridin-2-yl)oxy)-4-methylphenyl)-1,2,5-thiadiazolidin-3-one 1,1-dioxide]
AC50 (AMPK (A2/B1/G3)): ≤ 10 nM | AC50 (AMPK (A2/B2/G3)): 5000 to 7500 nM

Cc1ccc(N2CC(=O)NS2(=O)=O)cc1Oc1nc2cc(-c3ccc(C4(O)CCC4)cc3)c(F)cc2[nH]1 [II-22, 5-(3-((6-fluoro-5-(4-(1-hydroxycyclobutyl)phenyl)-1H-benzo[d]imidazol-2-yl)oxy)-4-methylphenyl)-1,2,5-thiadiazolidin-3-one 1,1-dioxide]
AC50 (AMPK (A2/B1/G3)): 10 to 500 nM | AC50 (AMPK (A2/B2/G3)): 10 to 500 nM

Cc1ccc(N2CC(=O)NS2(=O)=O)cc1Oc1nc2cc(-c3ccc(C4(O)CCC4)cc3)c(Cl)cc2[nH]1 [II-23, 5-(3-((6-chloro-5-(4-(1-hydroxycyclobutyl)phenyl)-1H-benzo[d]imidazol-2-yl)oxy)-4-methylphenyl)-1,2,5-thiadiazolidin-3-one 1,1-dioxide]
AC50 (AMPK (A2/B1/G3)): 10 to 500 nM | AC50 (AMPK (A2/B2/G3)): 10 to 500 nM

Cc1cc2c(cc1Oc1nc3nc(-c4ccc(C5(O)CCC5)cc4)c(Cl)cc3[nH]1)B(O)OC2 [II-26, 6-((6-chloro-5-(4-(1-hydroxycyclobutyl)phenyl)-1H-imidazo[4,5-b]pyridin-2-yl)oxy)-5-methylbenzo[c][1,2]oxaborol-1(3H)-ol]
AC50 (AMPK (A2/B1/G3)): ≤ 10 nM | AC50 (AMPK (A2/B2/G3)): 10 to 500 nM

O=C(O)c1c[nH]c2cc(Cl)c(-c3ccc(C4CCCO4)cc3)cc12 (stereo not shown) [PF-06409577, reference compound]
AMPK activation activity (glucose uptake assay) ([2]; diabetic donor): significant variability | glucose uptake ([2]; donor not stated): did not induce glucose uptake in dose-dependent manner | AMPK activation activity (glucose uptake assay) ([2]; healthy donor): significant variability | dose dependence of glucose uptake (printed: activation of insulin / AMPK activation) ([1]; 100 μM to 0.005 μM, 1 hour): highly variable
